biological target: CXCR7 (Homo sapiens (Human), UniProt P25106); assay: PathHunter CHO-K1 CXCR7 β-arrestin assay (agonistic activity); type: cell-based; conditions: β-arrestin recruitment in PathHunter CHO-K1 CXCR7 β-arrestin cells, 90 minutes at 37° C., geometric mean values
Experimental: The CXCI12 receptor and CXCR7 agonistic activities of the compounds of formula (I) are determined in accordance with the following experimental method.
The assay is using the PathHunter™ CHO-K1 CXCR7 β-arrestin cell line from DiscoverX. The system is based on the Enzyme Fragment Complementation Technology. Two complementing fragments of the β-galactosidase enzyme are expressed within stably transfected cells. The larger portion of β-gal, termed EA for Enzyme Acceptor, is fused to the C-terminus of b-arrestin 2. The smaller fragment, termed ProLink™ tag, is fused to CXCR7 at the C-terminus. Upon activation, b-arrestin is recruited which forces the interaction of ProLink and EA, allowing complementation of the two fragments of b-gal and the formation of a functional enzyme which is capable of hydrolysing the substrate and generating a chemiluminescent signal.
CHO-K1 CXCR7 β-arrestin cells are detached from culture dishes with a cell dissociation buffer (Invitrogen, #13151-014) and collected in growing medium (F12 HAMS 90% (v/v)/FCS 10% (v/v), Penicillin/streptomycin 1% (v/v)). 5000 cells per well (in 20 μl) are seeded in a 384 well plate (white-walled, clear bottom; BD Falcon #353274). The plate is incubated at 37° C./5% CO2 for 24 hours. Medium is then replaced by 20 μl OPTIMEM (Invitrogen #31985) for 3 to 4 hours. Test compounds are dissolved at 10 mM in DMSO and serially diluted in DMSO to 200× of the final concentration for dose response curves. Compounds are then diluted 1:33.3 in HBSS1X. 5 μl/well of HBSS1X/20 mM HEPES/0.2% BSA are added to the assay plate followed by addition of 5 μl/well of diluted compounds. CXCL12 (Peprotech #300-28A) may be used as a reference agonist. The plate is incubated for 90 minutes at 37° C. 12 μl of detection reagent (Path Hunter Detection Kit, DiscoveRx, #93-0001) is transferred to the assay plate and to the plate is incubated for 1 hour at room temperature. Luminescent signal is read in a microplate reader (FLUOstar Optima, bmg). The calculated EC50 values may fluctuate depending on the daily cellular assay performance. Fluctuations of this kind are known to those skilled in the art. Average EC50 values from several measurements are given as geometric mean values.

CXCR7, sequence (P25106 whole entry): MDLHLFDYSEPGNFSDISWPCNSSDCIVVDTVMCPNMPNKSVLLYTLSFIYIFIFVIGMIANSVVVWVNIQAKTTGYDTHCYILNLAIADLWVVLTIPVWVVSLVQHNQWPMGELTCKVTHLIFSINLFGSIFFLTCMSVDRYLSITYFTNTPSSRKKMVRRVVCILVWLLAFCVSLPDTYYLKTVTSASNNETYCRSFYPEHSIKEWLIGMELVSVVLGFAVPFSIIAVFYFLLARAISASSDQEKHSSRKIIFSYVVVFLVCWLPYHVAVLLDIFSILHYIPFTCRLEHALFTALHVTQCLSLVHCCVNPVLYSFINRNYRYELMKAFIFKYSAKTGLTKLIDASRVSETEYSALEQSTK
CXCR7, sequence (P32121 whole entry partner): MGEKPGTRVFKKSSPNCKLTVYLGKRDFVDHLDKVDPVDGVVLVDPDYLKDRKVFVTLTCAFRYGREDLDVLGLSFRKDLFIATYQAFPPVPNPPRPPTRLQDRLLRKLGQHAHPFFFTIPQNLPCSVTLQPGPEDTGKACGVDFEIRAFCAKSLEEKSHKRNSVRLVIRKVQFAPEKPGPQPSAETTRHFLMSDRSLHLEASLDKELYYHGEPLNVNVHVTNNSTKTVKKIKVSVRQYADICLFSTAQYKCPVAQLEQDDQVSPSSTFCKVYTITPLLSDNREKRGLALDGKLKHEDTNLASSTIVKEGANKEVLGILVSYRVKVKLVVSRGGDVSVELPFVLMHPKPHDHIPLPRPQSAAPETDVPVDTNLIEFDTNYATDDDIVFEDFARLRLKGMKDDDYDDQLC

Row | Compound | EC50
1 | CCCN1CCOc2c(cccc2NCC(=O)N(CCN(C)C)Cc2ncccc2Cl)C1 [Example 6, N-(3-Chloro-pyridin-2-ylmethyl)-N-(2-dimethylamino-ethyl)-2-(4-propyl-2,3,4,5-tetrahydro-benzo[f][1,4]oxazepin-9-ylamino)-acetamide] | 19 nM
2 | CCN1CCOc2c(NCC(=O)N(CCNC(C)(C)C)Cc3ccccc3C(F)(F)F)cccc2C1=O [Example 40, N-(2-tert-Butylamino-ethyl)-2-(4-ethyl-5-oxo-2,3,4,5-tetrahydro-benzo[f][1,4]oxazepin-9-ylamino)-N-(2-trifluoromethyl-benzyl)-acetamide] | 7 nM
3 | CN(C)CCN(Cc1ccccc1C(F)(F)F)C(=O)CNc1cccc2c1OCCN(CC1CC1)C2=O [Example 61, 2-(4-Cyclopropylmethyl-5-oxo-2,3,4,5-tetrahydro-benzo[f][1,4]oxazepin-9-ylamino)-N-(2-dimethylamino-ethyl)-N-(2-trifluoromethyl-benzyl)-acetamide] | 9 nM
4 | CN(C)CCN(Cc1ccccc1C(F)(F)F)C(=O)CNc1cccc2c1OCCN(CC1CC1)C2 [Example 84, 2-(4-Cyclopropylmethyl-2,3,4,5-tetrahydro-benzo[f][1,4]oxazepin-9-ylamino)-N-(2-dimethylamino-ethyl)-N-(2-trifluoromethyl-benzyl)-acetamide] | 4 nM
5 | CC(C)(C)NCCN(Cc1ncccc1C(F)(F)F)C(=O)CNc1cccc2c1CN(CC1CC1)CCO2 [Example 94, N-(2-tert-Butylamino-ethyl)-2-(4-cyclopropylmethyl-2,3,4,5-tetrahydro-benzo[f][1,4]oxazepin-6-ylamino)-N-(3-trifluoromethyl-pyridin-2-ylmethyl)-acetamide] | 4 nM
6 | CC(C)CN1CCOc2c(cccc2NCC(=O)N(CCN2CCC(F)(F)CC2)Cc2ncccc2Cl)C1 [Example 13, N-(3-Chloro-pyridin-2-ylmethyl)-N-[2-(4,4-difluoro-piperidin-1-yl)-ethyl]-2-(4-isobutyl-2,3,4,5-tetrahydro-benzo[f][1,4]oxazepin-9-ylamino)-acetamide] | 88 nM
7 | CCN1CCNc2c(cccc2NCC(=O)N(CCN(C)C)Cc2ccccc2C(F)(F)F)C1 [Example 21, N-(2-(dimethylamino)ethyl)-2-((4-ethyl-2,3,4,5-tetrahydro-1H-benzo[e][1,4]diazepin-9-yl)amino)-N-(2-(trifluoromethyl)benzyl)acetamide] | 6 nM
8 | CN1CCN(CC2CC2)Cc2cccc(NCC(=O)N(CCN3CCCC3)Cc3ncccc3C(F)(F)F)c21 [Example 51, 2-(4-Cyclopropylmethyl-1-methyl-2,3,4,5-tetrahydro-1H-benzo[e][1,4]diazepin-9-ylamino)-N-(2-pyrrolidin-1-yl-ethyl)-N-(3-trifluoromethyl-pyridin-2-ylmethyl)-acetamide] | 1 nM
9 | CN(C)CCN(Cc1ccccc1C(F)(F)F)C(=O)CNc1cccc2c1CCN(CC1CC1)CC2 [Example 27, 2-(3-Cyclopropylmethyl-2,3,4,5-tetrahydro-1H-benzo[d]azepin-6-ylamino)-N-(2-dimethylamino-ethyl)-N-(2-trifluoromethyl-benzyl)-acetamide] | 2 nM
10 | CC(C)CN1CCOc2c(cccc2NCC(=O)N(CCN(C)C)Cc2ncccc2C(F)(F)F)C1 [Example 2, N-(2-Dimethylamino-ethyl)-2-(4-isobutyl-2,3,4,5-tetrahydro-benzo[f][1,4]oxazepin-9-ylamino)-N-(3-trifluoromethyl-pyridin-2-ylmethyl)-acetamide] | 3 nM
11 | CN(C)CCN(Cc1ccccc1Cl)C(=O)CNc1cccc2c1CN(CC1CC1)CCO2 [Example 86, N-(2-Chloro-benzyl)-2-(4-cyclopropylmethyl-2,3,4,5-tetrahydro-benzo[f][1,4]oxazepin-6-ylamino)-N-(2-dimethylamino-ethyl)-acetamide] | 14 nM
12 | CN1CCN(CC2CC2)C(=O)c2cccc(NCC(=O)N(CCNC(C)(C)C)Cc3ccccc3C(F)(F)F)c21 [Example 43, N-(2-tert-Butylamino-ethyl)-2-(4-cyclopropylmethyl-1-methyl-5-oxo-2,3,4,5-tetrahydro-1H-benzo[e][1,4]diazepin-9-ylamino)-N-(2-trifluoromethyl-benzyl)-acetamide] | 4 nM
13 | CCN1CCOc2c(cccc2NCC(=O)N(CCNC(C)(C)C)Cc2ccccc2C(F)(F)F)C1 [Example 70, N-(2-tert-Butylamino-ethyl)-2-(4-ethyl-2,3,4,5-tetrahydro-benzo[f][1,4]oxazepin-9-ylamino)-N-(2-trifluoromethyl-benzyl)-acetamide] | 4 nM
14 | CC(C)NCCN(Cc1ccccc1C(F)(F)F)C(=O)CNc1cccc2c1N(C)CCN(CC1CC1)C2 [Example 52, 2-(4-Cyclopropylmethyl-1-methyl-2,3,4,5-tetrahydro-1H-benzo[e][1,4]diazepin-9-ylamino)-N-(2-isopropylamino-ethyl)-N-(2-trifluoromethyl-benzyl)-acetamide] | 1 nM
15 | CCN1CCOc2c(cccc2NCC(=O)N(CCN(C)C)Cc2ccccc2C(F)(F)F)C1 [Example 5, N-(2-Dimethylamino-ethyl)-2-(4-ethyl-2,3,4,5-tetrahydro-benzo[f][1,4]oxazepin-9-ylamino)-N-(2-trifluoromethyl-benzyl)-acetamide] | 7 nM
16 | CC(C)(C)NCCN(Cc1ccccc1Cl)C(=O)CNc1cccc2c1CN(CC1CC1)CCO2 [Example 91, N-(2-tert-Butylamino-ethyl)-N-(2-chloro-benzyl)-2-(4-cyclopropylmethyl-2,3,4,5-tetrahydro-benzo[f][1,4]oxazepin-6-ylamino)-acetamide] | 8 nM
17 | Cc1cccnc1CN(CCN(C)C)C(=O)CNc1cccc2c1CN(CC1CC1)CCO2 [Example 87, 2-(4-Cyclopropylmethyl-2,3,4,5-tetrahydro-benzo[f][1,4]oxazepin-6-ylamino)-N-(2-dimethylamino-ethyl)-N-(3-methyl-pyridin-2-ylmethyl)-acetamide] | 23 nM
18 | CN(C)CCN(Cc1cccc(Cl)c1Cl)C(=O)CNc1cccc2c1CN(CC1CC1)CCO2 [Example 88, 2-(4-Cyclopropylmethyl-2,3,4,5-tetrahydro-benzo[f][1,4]oxazepin-6-ylamino)-N-(2,3-dichloro-benzyl)-N-(2-dimethylamino-ethyl)-acetamide] | 15 nM
19 | CCCN1CCOc2c(cccc2NCC(=O)N(CCN(C)C)Cc2ccccc2C(F)(F)F)C1 [Example 7, N-(2-Dimethylamino-ethyl)-2-(4-propyl-2,3,4,5-tetrahydro-benzo[f][1,4]oxazepin-9-ylamino)-N-(2-trifluoromethyl-benzyl)-acetamide] | 4 nM
20 | CC(C)(C)NCCN(Cc1ccccc1C(F)(F)F)C(=O)CNc1cccc2c1C(=O)N(CC1CC1)CCO2 [Example 29, N-(2-tert-Butylamino-ethyl)-2-(4-cyclopropylmethyl-5-oxo-2,3,4,5-tetrahydro-benzo[f][1,4]oxazepin-6-ylamino)-N-(2-trifluoromethyl-benzyl)-acetamide] | 3 nM
21 | CN(C)CCN(Cc1ccccc1C(F)(F)F)C(=O)CNc1cccc2c1CCCN(CC1CC1)C2 [Example 28, 2-(2-Cyclopropylmethyl-2,3,4,5-tetrahydro-1H-benzo[c]azepin-6-ylamino)-N-(2-dimethylamino-ethyl)-N-(2-trifluoromethyl-benzyl)-acetamide] | 3 nM
22 | CCN1CCOc2c(cccc2NCC(=O)N(CCNC(C)C)Cc2ccccc2C(F)(F)F)C1 [Example 71, 2-(4-Ethyl-2,3,4,5-tetrahydro-benzo[f][1,4]oxazepin-9-ylamino)-N-(2-isopropylamino-ethyl)-N-(2-trifluoromethyl-benzyl)-acetamide] | 4 nM
23 | CN(C)CCN(Cc1cccc(Cl)c1Cl)C(=O)CNc1cccc2c1C(=O)N(CC1CC1)CCO2 [Example 30, 2-(4-Cyclopropylmethyl-5-oxo-2,3,4,5-tetrahydro-benzo[f][1,4]oxazepin-6-ylamino)-N-(2,3-dichloro-benzyl)-N-(2-dimethylamino-ethyl)-acetamide] | 7.8 nM
24 | CC(C)CN1CCOc2c(cccc2NCC(=O)N(CCN(C)C)Cc2ccc(F)cc2C(F)(F)F)C1 [Example 17, N-(2-Dimethylamino-ethyl)-N-(4-fluoro-2-trifluoromethyl-benzyl)-2-(4-isobutyl-2,3,4,5-tetrahydro-benzo[f][1,4]oxazepin-9-ylamino)-acetamide] | 59 nM
25 | CC(=O)N1CCc2cccc(OCC(=O)N(CCN(C)C)Cc3ccccc3C(F)(F)F)c2CC1 [Example 25, 2-(3-Acetyl-2,3,4,5-tetrahydro-1H-benzo[d]azepin-6-yloxy)-N-(2-dimethylamino-ethyl)-N-(2-trifluoromethyl-benzyl)-acetamide] | 3 nM

From patent publication US10202368B2, “CXCR7 receptor modulators” (IDORSIA PHARMACEUTICALS LTD, priority 2014, dated 2019)
